Data set [1] can be described thus: In vitro skin tape-stripping study. It counts as in vitro ADME, human. To be noted: o/w cream with octyl salicylate vs control cream without; 10 hours after application; 20 tape strips. Here is the method:
Experiments were performed using full thickness human skin, after removal of the subcutaneous layer. Each skin sample was treated with 40 mg of appropriate donor phase. Serial sampling of the skin was completed at different time points after donor application, by tape stripping (3M Corp Adhesive tape) with a pressure load of 240 g/cm^2. Each tape strip removed approximately 1 layer of stratum corneum, and in each case, 20 tape strips were performed. Tape strips were extracted with methanol: chloroform and analysed by high performance liquid chromatography (HPLC).

A short description of data set [2]: In vitro skin diffusion study, flow-through diffusion cells. It counts as in vitro ADME, human. To be noted: o/w cream with 2% octyl salicylate vs control cream without, 24 hours, 32° C, receptor 20% EtOH in water, p<0:05. As to the method: In vitro diffusion experiments were performed using stainless steel flow-through diffusion cells, using human epidermis maintained at 32° C. The receptor solution consisted of 20% EtOH in Milli-Q water. Eight cells for each condition were treated with 100 mg of appropriate donor phase. Samples were collected at appropriate time points and analysed by high performance liquid chromatography (HPLC).

Molecules are shown by their SMILES.

For `COC1=C(OC)C(=O)C(C/C=C(\C)CC/C=C(\C)CC/C=C(\C)CC/C=C(\C)CC/C=C(\C)CC/C=C(\C)CC/C=C(\C)CC/C=C(\C)CC/C=C(\C)CCC=C(C)C)=C(C)C1=O` [CoQ10, Coenzyme Q10], the “amount in the upper and middle regions of the stratum corneum (tape strips)” value in data set [1] is listed as “increase the amount”.
`O=C(O)CC(O)(CC(=O)O)C(=O)O` [citric acid]: the “amount in the upper and middle regions of the stratum corneum (tape strips)” value in data set [1] is given as “increase the amount”.
As to `O=c1c(-c2ccc(O)cc2)coc2cc(O)cc(O)c12` [genistein], in data set [2], the “increase of the cumulative amount across human epidermis compared with the control formulation” value came out at 39%.

For the origin of these results see patent US20050271692A1, “Topical cosmetic compositions” (Cosmeceutic Solutions Pty. Ltd., priority 2002, published 2005).
